The text below walks through data of US6693174B2, “Gene regulating aureobasidin sensitivity” (Takara Shuzo Co., Ltd., priority 1993, dated 2004).

For orientation: MIC means the least concentration at which growth counts as inhibited.

In brackets after ≈: the same amount, converted by molar mass. *1 amine or outer side, *2 acyl side, *3 side chain or, on linkers, in order; H or OH if unused. Where a SMILES comes first, the peptide text is derived from it. [ ]: non-standard residue; d: D form. X1 = CC[C@@H](C)[C@@H](O[*:1])C(=O)[*:2]; NMeVal(β-OH) = CN[C@H](C(=O)O)C(C)(C)O; NMeF = CN[C@@H](Cc1ccccc1)C(=O)O; aIle = CC[C@@H](C)[C@H](N)C(=O)O; NMeV = CN[C@H](C(=O)O)C(C)C

In data set [1] the test system is A. nidulans FGSC89 aureobasidin resistant colonies. Put plainly: Drug resistance of aureobasidin resistant mutants of A. nidulans. As to conditions: for sensitivities of the resistant cells compared with the parent strain: UV-induced resistant colonies vs FGSC89.
Data set [2] has as its system Schizo. pombe diploid cells (resistant strains x LH121). Briefly: Resistance of diploids formed by crossing resistant strains with normal strain LH121. The format is cell-based, Schizosaccharomyces pombe. As to conditions: five diploids, resistant strains crossed with LH121.
Data set [3] relates to Schizo. pombe haploid cell strain JY745. Put plainly: Sensitivity of parent strain to aureobasidin.
Data set [4] deals with A. fumigatus. The note with it: A. fumigatus TIMM No. 0063; cited from earlier work.
The test system of data set [5] is C. albicans var. stellatoidea. The note with it: C. albicans var. stellatoidea TIMM No. 1308; cited from earlier work.
The test system of data set [6] is Exophiala werneckii. As to conditions: Exophiala werneckii TIMM No. 1334; cited from earlier work.
Data set [7] deals with Cr. terreus. The note with it: Cr. terreus TIMM No. 0424; cited from earlier work.
Data set [8] concerns Paracoccidioides brasiliensis. As to conditions: Paracoccidioides brasiliensis TIMM No. 0880; cited from earlier work.
Data set [9] relates to Penicillium commune. As to conditions: Penicillium commune TIMM No. 1331; cited from earlier work.
For data set [10], the system named is C. parapsilosis. As to conditions: C. parapsilosis TIMM No. 0287; cited from earlier work.
For data set [11], the system named is Geotrichum candidum. The note with it: Geotrichum candidum TIMM No. 0694; cited from earlier work.
Data set [12] deals with A. terreus. As to conditions: A. terreus TIMM No. 0120; cited from earlier work.
For data set [13], the system named is A. nidulans FGSC89. Briefly: Sensitivity of parent strain to aureobasidin.
Data set [14] has as its system C. albicans TIMM0136 transformants. Briefly: MIC for C. albicans transformants obtained with SalI-linearized pUscaur1R-C. The format is cell-based, Candida albicans. The note with it: C. albicans TIMM0136 transformants by SalI-linearized pUscaur1R-C. Here is the method:
14-a) 5 μg of a linear plasmid, which had been prepared by cleaving pUscaur1^R-C with SalI capable of cleaving at one point in the pUC119 region, was transformed into C. albicans TIMM0136 by the lithium acetate method.

Data set [15] relates to Epidermophyton floccosum. The note with it: Epidermophyton floccosum TIMM No. 0431; cited from earlier work.
Data set [16] deals with Schizo. pombe. Put plainly: MIC of aureobasidin, test strain or cell (Table 3). The format is cell-based, Schizosaccharomyces pombe.
Data set [17] has as its system Cladosporium bantianum. The note with it: Cladosporium bantianum TIMM No. 0343; cited from earlier work.
Data set [18] has as its system mouse lymphoma EL-4. Briefly: MIC of aureobasidin, test strain or cell (Table 3). The format is cell-based.
Data set [19] deals with C. tropicalis. As to conditions: C. tropicalis TIMM No. 0312; cited from earlier work.
Data set [20] deals with mouse lymphoma L5178Y. Put plainly: MIC of aureobasidin, test strain or cell (Table 3). The format is cell-based.
The conditions of data set [21]: in contrast to existing antimycotics with only a fungistatic action; cited from earlier work.
Data set [22] has as its system A. clavatus. The note with it: A. clavatus TIMM No. 0056; cited from earlier work.
The subject of data set [23] is C. kefyr. The note with it: C. kefyr TIMM No. 0298; cited from earlier work.
The test system of data set [24] is C. krusei. As to conditions: C. krusei TIMM No. 0270; cited from earlier work.
Data set [25] concerns C. guilliermondii. The note with it: C. guilliermondii TIMM No. 0257; cited from earlier work.
Data set [26] concerns Sake yeast Kyokai K-701 transformants. Put plainly: Aureobasidin A resistance of sake yeast transformants obtained with StuI-linearized plasmids. The note with it: transformants by StuI-linearized plasmids, after subculture over several generations.
Data set [27] has as its system S. cerevisiae DKD5D resistant mutant clones. Briefly: Resistance of aureobasidin resistant mutants of S. cerevisiae. The note with it: 34 EMS mutant clones of DKD5D. The format is cell-based, Saccharomyces cerevisiae. Here is the method: (§1) Then resistant mutants were separated on an agar plate of a complete nutritional medium YPD (1% of yeast extract, 2% of polypeptone, 2% of glucose) containing 5 μg/ml or 1.5 μg/ml of aureobasidin A. After repeating the mutagenesis several times, 34 mutant clones were obtained.

For data set [28], the system named is Trichophyton mentagrophytes. The note with it: Trichophyton mentagrophytes TIMM No. 1189; cited from earlier work.
Data set [29] concerns C. glabrata. The note with it: C. glabrata TIMM No. 1062; cited from earlier work.
For data set [30], the system named is NRK-49F. Put plainly: MIC of aureobasidin, test strain or cell (Table 3). The format is cell-based.
Data set [31] has as its system Blastomyces dermatitidis. The note with it: Blastomyces dermatitidis TIMM No. 0126; cited from earlier work.
The test system of data set [32] is Cr. neoformans. As to conditions: Cr. neoformans TIMM No. 0354; cited from earlier work.
Data set [33] has as its system Sake yeast Kyokai K-701 transformants. Briefly: Aureobasidin A resistance of sake yeast transformants obtained with pYCscaur1R-C. The note with it: transformants by pYCscaur1R-C, after subculture over several generations.
Data set [34] deals with Sake yeast Kyokai K-701/pAUR1. Put plainly: Aureobasidin sensitivity of transformant after subculture without aureobasidin A. The note with it: K-701/pAUR1 vs Sake yeast Kyokai K-701.
Data set [35] relates to A. nidulans. The note with it: A. nidulans TIMM No. 0112; cited from earlier work.
The test system of data set [36] is Rhodotorula rubra. The note with it: Rhodotorula rubra TIMM No. 0923; cited from earlier work.
For data set [37], the system named is S. cerevisiae. Briefly: MIC of aureobasidin, test strain or cell (Table 3). The class given is cell-based, Saccharomyces cerevisiae.
For data set [38] the following is noted: cited from earlier work.
Data set [39] relates to Fonsecaea pedrosoi. The note with it: Fonsecaea pedrosoi TIMM No. 0482; cited from earlier work.
For data set [40], the system named is C. albicans. As to conditions: C. albicans TIMM No. 0136; cited from earlier work.
For data set [41], the system named is Histoplasma capsulatum. As to conditions: cited from earlier work.
Data set [42] concerns S. cerevisiae DKD5D. Put plainly: Sensitivity of parent strain to aureobasidin. The class given is cell-based, Saccharomyces cerevisiae. On the procedure: as §1

With `C[C@@H]1[C@H](O)[C@@H](C)/C=C/C=C/C=C/C=C/C=C/C=C/C=C/[C@H](O[C@@H]2O[C@H](C)[C@@H](O)[C@H](N)[C@@H]2O)C[C@@H]2O[C@](O)(C[C@@H](O)C[C@@H](O)[C@H](O)CC[C@@H](O)C[C@@H](O)CC(=O)O[C@H]1C)C[C@H](O)[C@H]2C(=O)O` [amphotericin B], in [1], the “sensitivities of the resistant cells compared with the parent strain” value (shortened to “sensitivities … compared with the parent strain”) is “the same as the parent strain”.
`CC[C@@H](C)[C@@H]1NC(=O)[C@@H]2CCCN2C(=O)[C@H](Cc2ccccc2)N(C)C(=O)[C@H](Cc2ccccc2)NC(=O)[C@H](C(C)C)N(C)C(=O)[C@@H]([C@H](C)CC)OC(=O)[C@H](C(C)(C)O)N(C)C(=O)[C@H](CC(C)C)NC(=O)[C@H](C(C)C)N(C)C1=O` [aureobasidin A] (cyclo(F[NMeF]P[aIle][NMeV]L[NMeVal(β-OH)][X1][NMeV])): the results for the “resistant to (concentration of aureobasidin A)” value in data set [2] and in [27] were 25 µg/mL and “more than 25 μg/ml”, respectively. The “sensitivity to aureobasidin at a concentration of” value in data set [3] was 0.08 µg/mL; in data set [42], 0.31 µg/mL. Also, the MIC was 20 µg/mL (≈ 18.2 µM) in [4]; “≦0.04 μg/ml” in data set [5]; 1.25 µg/mL (≈ 1.13 µM) in data set [6]; 0.31 µg/mL (≈ 0.281 µM) in data set [7]; 0.31 µg/mL (≈ 0.281 µM) in [8]; 1.25 µg/mL (≈ 1.13 µM) in [9]. The MIC is 0.16 µg/mL (≈ 0.145 µM) in [10]; 0.63 µg/mL (≈ 0.572 µM) in [11]; 5 µg/mL (≈ 4.54 µM) in data set [12]; no less than 10 µg/mL in data set [14]; 2.5 µg/mL (≈ 2.27 µM) in data set [15]; 0.08 µg/mL in [16]. In addition, the MIC was 0.63 µg/mL (≈ 0.572 µM) in [17]; 10 µg/mL in [18]; 0.08 µg/mL (≈ 0.0726 µM) in data set [19]; 100 µg/mL in data set [20]; 0.16 µg/mL (≈ 0.145 µM) in [22]; 0.16 µg/mL (≈ 0.145 µM) in data set [23]. In addition, the MIC entry in data set [24] was “≦0.04 μg/ml”; in data set [25] it was 0.08 µg/mL (≈ 0.0726 µM); in [28], 10 µg/mL (≈ 9.08 µM); in [29], “≦0.04 μg/ml”; in [30], 12.5 µg/mL; in data set [31], 0.31 µg/mL (≈ 0.281 µM). Moreover, the MIC is 0.63 µg/mL (≈ 0.572 µM) in [32]; 0.16 µg/mL (≈ 0.145 µM) in [35]; 0.63 µg/mL (≈ 0.572 µM) in data set [36]; 0.31 µg/mL in [37]; 0.31 µg/mL (≈ 0.281 µM) in data set [39]; “≦0.04 μg/ml” in data set [40]. In addition, the minimum inhibitory concentration (MIC) in data set [41] was 0.16 µg/mL (≈ 0.145 µM). In addition, in data set [13], the “sensitivity to aureobasidin at” value came out at 5 µg/mL. The “action (germicidal versus fungistatic)” value in [21] is reported as “germicidal action”. In addition, the “aureobasidin A resistance relative to the parent strain” value in data set [26] and in [33] was “at least 10 times” throughout. Further, in data set [1] (eight UV-induced resistant colonies), the “resistance to (concentration of aureobasidin)” value came out at 80 µg/mL. Further, in data set [34], the “aureobasidin resistance relative to the parent strain” value is recorded as “eight times”. Further, the toxicity in mammal result in [38] is given as “extremely low toxicity”.
As to `Clc1ccccc1C(c1ccccc1)(c1ccccc1)n1ccnc1` [clotrimazole], in [1], the “sensitivities … compared with the parent strain” value is listed as “the same as the parent strain”.
As to `C[C@@H]1C[C@@H]([C@H](O)CC2CC(=O)NC(=O)C2)C(=O)[C@@H](C)C1` [cycloheximide], the “sensitivities … compared with the parent strain” value in data set [1] is recorded as “the same as the parent strain”.
